Molecules are shown by their SMILES. Read-outs that look alike come from different tables or passages of the source.

In experiment [1] the test system is NF-kB. Put plainly: NF-kB luciferase reporter assay (HepG2 NF-kB-Luc reporter cells, IL-1β stimulated). Type of experiment: cell-based, human. Conditions: for IC50: Homo sapiens; for % IC50 relative to Celastrol: relative to celastrol (compound 1). The protocol:
HepG2 NF-kB-Luc reporter cells stimulated with IL-1β (20 ng/ml) and the relative NF-kB luciferase activity (RLU) was determined for each of celastrol (compound 1) and each of the exemplary derivative compounds at the following eight point concentrations: 10 μM, 5 μM, 2.5 μM, 1.25 μM, 0.63 μM, 0.31 μM, 0.16 μM, 0.016 μM, and 0 μM). Assay values were plotted (not shown) and IC50 inhibitory concentrations were calculated after normalization using Prizm 9.0 software.
This example illustrates a study of the anti-inflammatory potential of an exemplary celastrol derivative of the present disclosure (compound 22) using an NF-κB luciferase promoter reporter gene assay in the human liver cancer cell line, HepG2.
NF-kB luciferase reporter assay: The celastrol derivative, compound 22 (prepared as described in Example 13) and the parent molecule, compound 1 (celastrol), were freshly dissolved in DMSO. HepG2 NF-κB reporter cells were seeded (2.5×10^4/well) in 96-well plate and then pre-treated with either compound 22 or compound 1 at the 8-point concentrations of 10, 5, 2.5, 1.25, 0.63, 0.31, 0.16, 0.016, or 0 μM, respectively, and the NF-κB promoter was activated by adding IL-1β (20 ng/ml) to the cells. After 18 hours, the cells were harvested by adding the 1× passive cell lysis buffer (Promega) and followed by measurement of the relative NF-kB luciferase activity (RLU) using GloMax discover microplate reader (Promega). Inhibitory concentrations (IC50) after normalization using Prizm 9.0 software.
(In general: In a reporter assay the amount or activity of a reporter protein is the signal.)

Experiment [2] relates to LPS-induced acute inflammation. In words: LPS-induced septic shock mouse model, cytokine expression in serum (ELISA) and colonic mucosa (qPCR). Type of experiment: in vivo. Conditions: 1 mg/kg i.p. 1 hour before LPS (25 mg/kg, i.p.), 4 hours post LPS, ELISA; FIG. 4A. As to the method: FIG. 4A, and FIG. 4B depict results showing that compound 22 (CLM-022) decreased the production of pro-inflammatory cytokines in the LPS-induced septic shock mouse model as described in Example 17. Compound 1 (CLM-001) and compound 22 (CLM-022) (1 mg/kg) injected intraperitoneally 1 hour prior to septic shock induction by administering sublethal dose of LPS (25 mg/kg, i.p.), mice were sacrificed 4 hours post LPS injection, and subjected to measurement of inflammatory cytokine expression. FIG. 4A depicts plot of data showing that the level of TNF-α decreased in the serum of compound 1 and compound 22 treated mice.
This example illustrates a study of the inhibitory function of an exemplary celastrol derivative of the present disclosure (compound 22) against LPS-induced acute inflammation in vivo, we set up LPS-induced septic shock mouse model (Yu et al., 2017) and detected the expression levels of inflammatory cytokines in colon.
Mice (n=3 per group) were administered intraperitoneally (i.p.) with control vehicle, compound 1 (1 mg/kg), or compound 22 (1 mg/kg). After 1 hour, mice were administered by i.p. injection a sublethal dose of LPS (25 mg/kg). Four hours later, the mice were subjected to blood collection and harvesting colonic mucosa by scraping colon. Cytokine expression was measured by conducting ELISA (Cat #900-T54, PeproTech) for TNF-α on blood serum samples and qPCR for the cytokines, IL-1 (TaqMan, Mm00434228), IL-6 (TaqMan, Mm00446190), TNF-α (TaqMan, 00443258), iNOS (TaqMan, 00440502), on colonic mucosa samples.
For orientation: In an ELISA, binding on a coated surface is turned into a signal by an enzyme label.

Experiment [3] concerns TNF-α secretion. Put plainly: Secreted TNF-α in conditioned media of BMDC (ELISA), LPS+ATP or LPS+Nigericin. As to conditions: 63-500 nM, FIG. 2C. Format: cell-based. The protocol:
FIG. 2A depicts western blot images showing the relative NLRP3 inflammasome activity of the compounds 22 (CLM-022) and 1 (CLM-001) by detecting the level of cellular ASC complex and the mature form of IL-1β (15 kDa) in a conditioned media of BMDCs treated with LPS (100 ng/ml) for 3 hours and then the compound at 50 nM, 100 nM, and 500 nM concentration for 30 min, followed by ATP or Nigericin. ASC monomer and β-Actin proteins were used as controls. FIG. 2B depict plots of results showing secreted IL-1β levels measured by ELISA using conditioned media of BMDC treated with the compound 22 or compound 1 at 63 nM, 125 nM, 250 nM, and 500 nM, under NLRP3 inflammasome activation induced either by LPS+ATP or LPS+Nigericin. FIG. 2C depict plots of results showing secreted TNF-α levels measured by ELISA using conditioned media of BMDC treated with the compound 22 or compound 1 at 63 nM, 125 nM, 250 nM, and 500 nM, under NLRP3 inflammasome activation induced either by LPS+ATP or LPS+Nigericin.
3. The secreted form of TNF-α, a NLRP3 inflammasome independent cytokine, induced by LPS+ATP or LPS+Nigericin were measured by ELISA assay using the conditioned media of BMDC treated with compound 1 (CLM-1) or compound 22 (CLM-022) at concentrations of 63, 125, 250, 500 nM under NLRP3 inflammasome activation induced either by LPS+ATP or LPS+Nigericin.

Experiment [4] has as its system NLRP3 inflammasome. Put plainly: IL-1β secretion in THP-1 macrophages, LPS + Nigericin. Format: cell-based. As to conditions: human THP-1 macrophages, LPS (100 ng/ml) + Nigericin (10 μM), 0-10 μM; FIG. 5C; read-out: IC50 for inhibition of IL-1β secretion. The protocol: (§1) This example illustrates a comparative study of CLM-022 and MCC950 in inhibiting NLRP3 inflammasome activity in mouse and human macrophages.
To confirm the inhibitory effect of CLM-022 in human macrophages, THP-1 cells, a human leukemia monocytic cell line, were differentiated into macrophages using phorbol 12-myristate-13-acetate (PMA, 100 ng/ml) treatment for one day. The THP-1 macrophages were then treated with LPS (100 ng/ml) for 3 hours to induce the expression of inflammatory genes. Subsequently, the THP-1 cells were treated with CLM-022 or MCC950 in a dose range of 0-10 μM for 30 minutes. Then, to fully activate NLRP3-dependent inflammasome activity, Nigericin (10 μM) was added to the THP-1 cells for an additional 60 min.

In experiment [5] the test system is NLRP3 inflammasome. In words: IL-1β secretion in BMDMs, LPS + Nigericin. Format: cell-based, mouse. As to conditions: Mus musculus, BMDM, LPS (100 ng/ml) + Nigericin (10 μM), 0-10 μM, FIG. 5A, read-out: IC50 for inhibition of IL-1β secretion (normalized). As to the method:
as §1
(§2) Bone marrow-derived macrophages (BMDMs) were treated with LPS (100 ng/ml) for 3 hours to induce the expression of inflammatory genes, including TNF-α, NLRP3, and pro-IL-1β. Subsequently, the BMDMs were treated with CLM-022 or MCC950 in a dose range of 0-10 μM for 30 minutes. Then, to fully activate NLRP3-dependent inflammasome activity and cytokine secretion, Nigericin (10 μM) was added to the BMDMs for an additional 30 minutes.

Experiment [6] has as its system TNF-α secretion. Put plainly: TNF-α secretion in BMDMs, LPS + Nigericin. Format: cell-based, mouse. Conditions: FIG. 5B. The protocol:
as §1, §2

The test system of experiment [7] is THP-1 cells. In words: LDH release (NLRP3 inflammasome-induced cytotoxicity) in THP-1 cells. Format: cell-based, human. Conditions: THP-1, LPS and Nigericin, FIG. 7B. An excerpt: (§3) Pyroptosis, a pro-inflammatory form of cell death, is triggered by the activation of NLRP3 inflammasome components (GSDMD and Caspase-1), leading to the release of pro-inflammatory cytokines IL-1β and IL-18, as well as damage-associated molecular patterns (DAMPs). This process elicits a cascade of inflammatory responses, which can persist if dysregulated in affected tissues. Given the significant inhibitory potential of CLM-022 against NLRP3 inflammasome and IL-1β secretion, it was proposed that CLM-022 could effectively enhance cell viability by inhibiting pyroptosis in the context of inflammation and inflammasome activation. This example illustrates a comparative study of the abilities of CLM-022 and MCC950 to protect THP-1 cells from inflammasome-induced pyroptosis.
(§4) After LPS and Nigericin treatment, THP-1 cells were treated with either CLM-022 or MCC950 over a dosage range of 0 μM to 10 μM and cell viability was determined by impermeant live/dead staining dye and flow cytometric analysis. Additionally, NLRP3 inflammasome-induced cytotoxicity was investigated by measuring the level of LDH in the conditioned media after the CLM-022 and MCC950 treatments. Further, Western blotting of samples from the THP-1 cell viability assays was carried out to determine levels of the pyroptosis-mediating molecules, GSDMD and Caspase-1.
(In general: Release of lactate dehydrogenase indicates damage to the cell membrane.)

Experiment [8] relates to GSDMD and Caspase-1. Put plainly: GSDMD and Caspase-1 cleavage in THP-1 cells (western blot). Type of experiment: cell-based. Conditions: Homo sapiens; THP-1, western blot; FIG. 7C; read-out: concentration inhibiting GSDMD and Caspase-1 cleavage.
Text: as §3, §4

The subject of experiment [9] is THP-1 cells. In words: THP-1 cell viability (inflammasome-induced pyroptosis), live/dead staining and flow cytometry. As to conditions: THP-1, LPS and Nigericin; FIG. 7A. Type of experiment: cell-based, human.
Text: as §3, §4

Where [10] appears, read: HepG2 NF-kB-Luc reporter cells, IL-1β (20 ng/ml), Example 13, read-out: NF-kB IC50.

A word on the IC50: it is the point on the concentration scale where inhibition reaches its midpoint. Take `CC1=C(O)C(=O)C=C2C1=CC=C1[C@@]2(C)CC[C@@]2(C)[C@@H]3C[C@](C)(C(=O)O)CC[C@]3(C)CC[C@]12C` [Compound 1, (2R,4aS,6aR,6aS,14aS,14bR)-10-hydroxy-2,4a,6a,6a,9,14a-hexamethyl-11-oxo-1,3,4,5,6,13,14,14b-octahydropicene-2-carboxylic acid, reference compound]: the IC50 is 528 nM in experiment [1] (HepG2, IL-1β (20 ng/ml), 18 hours, normalized, Example 14, FIG. 1B, read-out: IC50 for NF-κB promoter activity) and 667 nM in [1] (setting [10]). Moreover, the “level of TNF-α in serum” value in experiment [2] is reported as “decreased”. In addition, the “suppression of TNF-α secretion” value in experiment [3] is given as “no significant suppressive effect on TNF-α inflammatory cytokine secretion”.
On to `CC1=C(O)C(=O)C=C2C1=CC=C1[C@@]2(C)CC[C@@]2(C)C3C[C@](C)(NC(=O)C(=O)N4CCN(C)CC4)CC[C@]3(C)CC[C@]12C` (stereo partly drawn) [Compound 14, N-((2R,4aS,6aS,12bR,14aS)-10-hydroxy-2,4a,6a,9,12b,14a-hexamethyl-11-oxo-1,2,3,4,4a,5,6,6a,11,12b,13,14,14a,14b-tetradecahydropicen-2-yl)-2-(4-methylpiperazin-1-yl)-2-oxoacetamide], for which the IC50 in [1] (setting [10]) amounted to 1160 nM. In [1], the “% IC50 relative to Celastrol” value is 115%.
For `CC1=C(O)C(=O)C=C2C1=CC=C1[C@@]2(C)CC[C@@]2(C)C3C[C@](C)(NC(=O)C(=O)N4CC5(COC5)C4)CC[C@]3(C)CC[C@]12C` (stereo partly drawn) [Compound 15, N-((2R,4aS,6aS,12bR,14aS)-10-hydroxy-2,4a,6a,9,12b,14a-hexamethyl-11-oxo-1,2,3,4,4a,5,6,6a,11,12b,13,14,14a,14b-tetradecahydropicen-2-yl)-2-oxo-2-(2-oxa-6-azaspiro[3.3]heptan-6-yl)acetamide], in that order: 942 nM and 93%.
For `CC1=C(O)C(=O)C=C2C1=CC=C1[C@@]2(C)CC[C@@]2(C)C3C[C@](C)(N(C)C(=O)C(=O)N4CCN(C)CC4)CC[C@]3(C)CC[C@]12C` (stereo partly drawn) [Compound 16, N-((2R,4aS,6aS,12bR,14aS)-10-hydroxy-2,4a,6a,9,12b,14a-hexamethyl-11-oxo-1,2,3,4,4a,5,6,6a,11,12b,13,14,14a,14b-tetradecahydropicen-2-yl)-N-methyl-2-(4-methylpiperazin-1-yl)-2-oxoacetamide], in that order: 1150 nM and 114%.
For `CC1=C(O)C(=O)C=C2C1=CC=C1[C@@]2(C)CC[C@@]2(C)C3C[C@](C)(NC(=O)C(=O)NC4CN(C)C4)CC[C@]3(C)CC[C@]12C` (stereo partly drawn) [Compound 17, N1-((2R,4aS,6aS,12bR,14aS)-10-hydroxy-2,4a,6a,9,12b,14a-hexamethyl-11-oxo-1,2,3,4,4a,5,6,6a,11,12b,13,14,14a,14b-tetradecahydropicen-2-yl)-N2-(1-methylazetidin-3-yl)oxalamide], in that order: 1640 nM and 163%.
Consider `CC(C)(O)c1coc(S(=O)(=O)NC(=O)Nc2c3c(cc4c2CCC4)CCC3)c1` [MCC950, reference compound], for which the IC50 in [4] is 1250 nM; in experiment [5], 70 nM; in experiment [7] (Homo sapiens, 0 μM to 10 μM, read-out: IC50 for LDH release (normalized)) it was 124 nM. Also, the “suppression of TNF-α secretion” value in experiment [6] is given as “neither CLM-022 nor MCC950 suppressed TNF-α secretion”. Further, in experiment [7], the “inhibition of LDH release” value is listed as “significantly inhibited release of LDH”. In experiment [8], the minimal effective concentration turned out to be 1 µM. Further, the “cell viability (in words)” value in [9] is on record as “A similar effect”.

The values above are taken from US20260356879A1, “CELASTROL DERIVATIVES” (Celloram Inc., priority 2022, published 2026).
